{
  "source": "ChEMBL document CHEMBL5154884",
  "about": "“Discovery of a Novel Src Homology-2 Domain Containing Protein Tyrosine Phosphatase-2 (SHP2) and Cyclin-Dependent Kinase 4 (CDK4) Dual Inhibitor for the Treatment of Triple-Negative Breast Cancer” (J Med Chem, 2022)",
  "key": {"[1]": {"experiment": "Inhibition of recombinant N-terminal GST/His6-fusion tagged human CDK1/Cyclin B expressed in Sf9 insect cells incubated for 20 mins followed by [33P]gamma-ATP addition and measured after 2 hrs by radiometric HotSpot Kinase assay"}, "[2]": {"experiment": "AUC in ICR mouse at 10 mg/kg, po measured upto 24 hrs by LC-MS/MS analysis", "type": "ADME, organism-based", "design": "time < 24 hrs, dose 10 mg/kg, route po", "conditions": "in vivo"}, "[3]": {"experiment": "Terminal half life in ICR mouse at 1 mg/kg, iv measured upto 24 hrs by LC-MS/MS analysis", "type": "ADME, organism-based", "conditions": "in vivo, read-out: beta t1/2 (converted)"}, "[4]": {"experiment": "Clearance in ICR mouse at 1 mg/kg, iv measured upto 24 hrs by LC-MS/MS analysis", "type": "ADME, organism-based", "conditions": "in vivo"}, "[5]": {"molecular_target": "T1, Tyrosine-protein phosphatase non-receptor type 11 (Homo sapiens, UniProt Q06124)", "T1 sequence (Q06124 whole entry)": "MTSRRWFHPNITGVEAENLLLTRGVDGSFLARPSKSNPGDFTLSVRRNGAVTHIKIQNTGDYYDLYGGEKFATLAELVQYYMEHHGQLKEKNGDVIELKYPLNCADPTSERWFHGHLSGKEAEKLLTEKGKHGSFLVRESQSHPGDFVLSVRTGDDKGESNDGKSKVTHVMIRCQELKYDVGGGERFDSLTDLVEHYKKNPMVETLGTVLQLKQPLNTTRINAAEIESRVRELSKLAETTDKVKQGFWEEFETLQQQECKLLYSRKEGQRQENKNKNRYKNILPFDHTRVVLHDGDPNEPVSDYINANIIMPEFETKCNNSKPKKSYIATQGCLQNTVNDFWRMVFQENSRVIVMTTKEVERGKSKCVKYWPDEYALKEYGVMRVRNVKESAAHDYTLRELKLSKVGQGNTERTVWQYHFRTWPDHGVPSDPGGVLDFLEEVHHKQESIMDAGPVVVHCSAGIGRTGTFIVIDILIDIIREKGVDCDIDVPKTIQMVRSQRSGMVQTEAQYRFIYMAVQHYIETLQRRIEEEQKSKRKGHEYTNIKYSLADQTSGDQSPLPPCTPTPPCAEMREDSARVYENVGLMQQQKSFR", "experiment": "Inhibition of SHP2 (unknown origin) using DiFMUP as substrate incubated for 60 mins followed by substrate addition for 30 mins by microplate reader method"}, "CDK4/Cyclin D3 [6]": {"molecular_target": "T2, CDK4/Cyclin D3 (Homo sapiens, UniProt P11802)", "T2 sequence (P11802 whole entry, the tested form may be a part)": "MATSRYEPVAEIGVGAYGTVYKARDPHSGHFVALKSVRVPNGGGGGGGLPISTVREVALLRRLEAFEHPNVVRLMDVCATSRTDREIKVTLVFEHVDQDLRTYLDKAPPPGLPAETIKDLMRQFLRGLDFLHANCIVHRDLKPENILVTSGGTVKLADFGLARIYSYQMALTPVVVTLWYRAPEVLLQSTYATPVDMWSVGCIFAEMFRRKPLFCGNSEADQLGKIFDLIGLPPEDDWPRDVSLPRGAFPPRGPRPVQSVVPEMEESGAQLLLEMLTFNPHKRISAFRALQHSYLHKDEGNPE", "T2 sequence (P30281 whole entry, further chain, the tested form may be a part)": "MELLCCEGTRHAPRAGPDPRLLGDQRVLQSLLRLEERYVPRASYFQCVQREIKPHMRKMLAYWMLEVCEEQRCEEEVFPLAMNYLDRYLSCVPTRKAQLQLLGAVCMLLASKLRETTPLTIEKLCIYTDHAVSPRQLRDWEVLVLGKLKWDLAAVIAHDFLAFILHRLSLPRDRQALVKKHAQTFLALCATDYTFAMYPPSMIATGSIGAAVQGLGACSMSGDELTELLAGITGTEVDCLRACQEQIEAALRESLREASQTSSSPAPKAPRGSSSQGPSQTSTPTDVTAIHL", "experiment": "Inhibition of recombinant N-terminal GST/His6-fusion tagged human CDK4/Cyclin D3 expressed in Sf9 insect cells incubated for 20 mins followed by [33P]gamma-ATP addition and measured after 2 hrs by radiometric HotSpot Kinase assay"}, "MDA-MB-231 [7]": {"tested_on": "MDA-MB-231", "experiment": "Induction of cell cycle arrest in human MDA-MB-231 cells assessed as accumulation of cells in G2/M phase at 3 uM incubated for 48 hrs by RNase/propidium iodide staining based flow cytometry analysis (reference value: 2.7%)", "type": "functional"}, "CDK4/Cyclin D3 [8]": {"molecular_target": "T2, CDK4/Cyclin D3", "experiment": "Inhibition of recombinant N-terminal GST/His6-fusion tagged human CDK4/Cyclin D3 expressed in Sf9 insect cells using 5-FAM-IPTSPITTTYFFFKKK as substrate preincubated for 10 mins followed by substrate addition and incubated for 3 hrs in presence of ATP by caliper mobility shift analysis"}, "EMT6 [9]": {"tested_on": "EMT6", "experiment": "Antitumor activity against mouse EMT6 cells implanted in BALB/c mouse syngenic model assessed as downregulation of pERK level in tumor at 20 mg/kg, po bid measured after 18 days by immunohistochemical analysis", "type": "functional, organism-based", "conditions": "time 18.0 day"}, "EMT6 [10]": {"tested_on": "EMT6", "experiment": "Antitumor activity against mouse EMT6 cells implanted in BALB/c mouse syngenic model assessed as downregulation of p-retinoblastoma level in tumor at 20 mg/kg, po bid measured after 18 days by immunohistochemical analysis", "type": "functional, organism-based", "conditions": "time 18.0 day"}, "EMT6 [11]": {"tested_on": "EMT6", "experiment": "Antitumor activity against mouse EMT6 cells implanted in BALB/c mouse syngenic model assessed as downregulation of pERK level in tumor at 20 to 40 mg/kg, po qd measured after 18 days by immunohistochemical analysis", "type": "functional, organism-based", "conditions": "dose 20-40 mg/kg, time 18.0 day"}, "[12]": {"molecular_target": "Cyclin-dependent kinase 4 (Homo sapiens) (UniProt P11802)", "sequence (P11802 whole entry)": "as the sequence (P11802 whole entry, the tested form may be a part) above", "experiment": "Inhibition of CDK4 downstream signalling in human MDA-MB-231 cells assessed as decrease in p-retinoblastoma protein level measured after 72 hrs by Western blot analysis", "type": "cell-based", "conditions": "dose 1.25-20 µM, DDE = dose-dependent effect"}, "MDA-MB-231 [13]": {"tested_on": "MDA-MB-231", "experiment": "Induction of apoptosis in human MDA-MB-231 cells assessed as necrotic cells at 3 uM measured after 48 hrs by Annexin V-FITC/PI staining based flow cytometric analysis (reference value: 0.58%)", "type": "functional"}, "MDA-MB-231 [14]": {"tested_on": "MDA-MB-231", "experiment": "Antiproliferative activity against human MDA-MB-231 cells assessed as inhibition of cell growth incubated for 48 hrs by MTT assay", "type": "functional, cell-based", "conditions": "Homo sapiens, MDA-MB-231, 48 h"}, "[15]": {"experiment": "Toxicity in BALB/c nude mouse implanted with mouse EMT6 cells assessed as mortality at 40 mg/kg, po qd and measured every 2 days for 18 days", "type": "organism-based", "conditions": "in vivo, 432 h, time 18 day"}, "EMT6 [16]": {"tested_on": "EMT6", "experiment": "Antiproliferative activity against mouse EMT6 cells assessed as inhibition of cell growth incubated for 48 hrs by MTT assay", "type": "functional, cell-based", "conditions": "Mus musculus, EMT6, 48 h"}, "MDA-MB-231 [17]": {"tested_on": "MDA-MB-231", "experiment": "Induction of apoptosis in human MDA-MB-231 cells assessed as late apoptotic cells at 3 uM measured after 48 hrs by Annexin V-FITC/PI staining based flow cytometric analysis (reference value: 1.06%)", "type": "functional"}, "[18]": {"experiment": "Terminal half life in ICR mouse at 10 mg/kg, po measured upto 24 hrs by LC-MS/MS analysis", "type": "ADME, organism-based", "conditions": "in vivo, read-out: beta t1/2 (converted)"}, "EMT6 [19]": {"tested_on": "EMT6", "experiment": "Antitumor activity against mouse EMT6 cells implanted in BALB/c mouse syngenic model assessed as tumor growth inhibition at 40 mg/kg, po qd and measured after 18 days relative to control", "type": "functional", "conditions": "EMT6, 432 h, time 18 day, read-out: TGI"}, "EMT6 [20]": {"tested_on": "EMT6", "experiment": "Antitumor activity against mouse EMT6 cells implanted in BALB/c mouse syngenic model assessed as downregulation of Ki67 level in tumor at 20 mg/kg, po bid measured after 18 days by immunohistochemical analysis", "type": "functional, organism-based", "conditions": "time 18.0 day"}, "[21]": {"experiment": "Cmax in ICR mouse at 10 mg/kg, po measured upto 24 hrs by LC-MS/MS analysis", "type": "ADME, organism-based", "design": "time < 24 hrs, dose 10 mg/kg, route po", "conditions": "in vivo"}, "[22]": {"molecular_target": "Cyclin-dependent kinase 7/ cyclin H (Homo sapiens, UniProt P50613)", "sequence (P51946 whole entry)": "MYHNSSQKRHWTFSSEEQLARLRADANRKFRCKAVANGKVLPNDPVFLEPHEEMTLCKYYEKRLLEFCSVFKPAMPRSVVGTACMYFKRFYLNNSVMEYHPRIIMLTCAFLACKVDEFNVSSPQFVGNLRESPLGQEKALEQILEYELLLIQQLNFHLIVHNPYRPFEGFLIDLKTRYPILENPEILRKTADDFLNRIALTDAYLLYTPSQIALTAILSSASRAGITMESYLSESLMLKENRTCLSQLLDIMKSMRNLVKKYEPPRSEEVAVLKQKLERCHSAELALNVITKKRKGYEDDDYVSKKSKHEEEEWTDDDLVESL", "sequence (P50613 whole entry)": "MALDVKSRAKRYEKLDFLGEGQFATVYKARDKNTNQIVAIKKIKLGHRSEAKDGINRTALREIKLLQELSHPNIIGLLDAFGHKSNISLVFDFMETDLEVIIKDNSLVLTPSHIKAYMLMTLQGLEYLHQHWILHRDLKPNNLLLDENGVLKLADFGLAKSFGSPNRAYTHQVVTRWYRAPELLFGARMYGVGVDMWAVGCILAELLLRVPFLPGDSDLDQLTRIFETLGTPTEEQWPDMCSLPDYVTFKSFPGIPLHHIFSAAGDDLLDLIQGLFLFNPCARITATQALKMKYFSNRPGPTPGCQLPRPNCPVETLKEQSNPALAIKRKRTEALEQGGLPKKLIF", "experiment": "Inhibition of CDK7/Cyclin H (unknown origin) incubated for 20 mins followed by [33P]gamma-ATP addition and measured after 2 hrs by radiometric HotSpot Kinase assay", "type": "protein-complex assay"}, "[23]": {"experiment": "AUC in ICR mouse at 1 mg/kg, iv measured upto 24 hrs by LC-MS/MS analysis", "type": "ADME, organism-based", "design": "time < 24 hrs, dose 1 mg/kg, route iv", "conditions": "in vivo"}, "EMT6 [24]": {"tested_on": "EMT6", "experiment": "Antitumor activity against mouse EMT6 cells implanted in BALB/c mouse syngenic model assessed as increase in infiltration of CD8 positive T cells into tumors at 20 to 40 mg/kg, po qd measured after 18 days by immunohistochemical analysis", "type": "functional, organism-based", "conditions": "dose 20-40 mg/kg, time 18.0 day"}, "[25]": {"molecular_target": "Cyclin-dependent kinase 5/CDK5 activator 1 (Homo sapiens, UniProt Q00535)", "sequence (Q00535 whole entry, the tested form may be a part)": "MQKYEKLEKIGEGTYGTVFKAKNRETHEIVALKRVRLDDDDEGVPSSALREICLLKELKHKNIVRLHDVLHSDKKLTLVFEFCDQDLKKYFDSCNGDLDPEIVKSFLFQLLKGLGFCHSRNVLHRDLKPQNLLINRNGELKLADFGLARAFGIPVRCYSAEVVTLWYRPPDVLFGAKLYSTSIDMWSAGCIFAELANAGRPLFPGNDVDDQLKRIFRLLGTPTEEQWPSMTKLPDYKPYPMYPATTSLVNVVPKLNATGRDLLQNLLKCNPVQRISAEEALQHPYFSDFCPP", "sequence (Q15078 whole entry, further chain, the tested form may be a part)": "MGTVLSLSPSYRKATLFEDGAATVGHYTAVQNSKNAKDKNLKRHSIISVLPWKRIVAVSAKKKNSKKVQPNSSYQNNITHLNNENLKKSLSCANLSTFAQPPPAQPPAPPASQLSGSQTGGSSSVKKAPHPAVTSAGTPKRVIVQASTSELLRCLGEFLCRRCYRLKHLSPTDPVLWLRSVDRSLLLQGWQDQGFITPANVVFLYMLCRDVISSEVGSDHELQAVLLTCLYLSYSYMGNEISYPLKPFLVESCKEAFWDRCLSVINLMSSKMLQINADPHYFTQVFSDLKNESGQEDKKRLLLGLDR", "experiment": "Inhibition of recombinant full length N-terminal GST/His6-fusion tagged human CDK5/P25 expressed in Sf9 insect cells incubated for 20 mins followed by [33P]gamma-ATP addition and measured after 2 hrs by radiometric HotSpot Kinase assay"}},
  "note": "Calls of active or inactive are those of the source. The rule behind the calls is not given here.",
  "data": [
    {"smiles": "Cc1nc2c(F)cc(-c3nc(Nc4nccc(Sc5cnc(N6CCC7(CC6)CO[C@@H](C)[C@H]7N)cn5)c4Cl)ncc3F)cc2n1C(C)C", "values": [
      {"measurement": "IC50", "setting": "[1]", "result": 0.21, "unit": "µM"},
      {"measurement": "AUC at 24 h", "setting": "[2]", "result": 5.51, "unit": "µg·h/mL"},
      {"measurement": "half-life", "setting": "[3]", "result": 2.11, "unit": "h"},
      {"measurement": "clearance", "setting": "[4]", "result": 0.834, "unit": "L/h/kg"},
      {"measurement": "IC50", "setting": "[5]", "result": 0.0043, "unit": "µM"},
      {"measurement": "IC50", "setting": "CDK4/Cyclin D3 [6]", "result": 0.0182, "unit": "µM"},
      {"measurement": "Activity", "setting": "MDA-MB-231 [7]", "result": 1.5, "unit": "%"},
      {"measurement": "IC50", "setting": "CDK4/Cyclin D3 [8]", "result": 0.0182, "unit": "µM"},
      {"measurement": "Activity", "setting": "EMT6 [9]", "result": "Active"},
      {"measurement": "Activity", "setting": "EMT6 [10]", "result": "Active"},
      {"measurement": "Activity", "setting": "EMT6 [11]", "result": "Active"},
      {"measurement": "inhibition", "setting": "[12]", "result": "Dde"},
      {"measurement": "Activity", "setting": "MDA-MB-231 [13]", "result": 1.25, "unit": "%"},
      {"measurement": "IC50", "setting": "MDA-MB-231 [14]", "result": 5.57, "unit": "µM"},
      {"measurement": "Activity", "setting": "[15]", "result": "Non-Toxic"},
      {"measurement": "IC50", "setting": "EMT6 [16]", "result": 0.64, "unit": "µM"},
      {"measurement": "Activity", "setting": "MDA-MB-231 [17]", "result": 7.25, "unit": "%"},
      {"measurement": "half-life", "setting": "[18]", "result": 2.94, "unit": "h"},
      {"measurement": "inhibition in vivo at 40 mg/kg", "setting": "EMT6 [19]", "result": 80, "unit": "%"},
      {"measurement": "Activity", "setting": "EMT6 [20]", "result": "Active"},
      {"measurement": "Cmax", "setting": "[21]", "result": 0.634, "unit": "µg/mL"},
      {"measurement": "IC50", "setting": "[22]", "result": 0.968, "unit": "µM"},
      {"measurement": "AUC at 24 h", "setting": "[23]", "result": 1.2, "unit": "µg·h/mL"},
      {"measurement": "Activity", "setting": "EMT6 [24]", "result": "Active"},
      {"measurement": "IC50", "setting": "[25]", "result": 0.54, "unit": "µM"}
    ]}
  ]
}
